Assay results taken from patent publication US9161944B2, “Method for preventing cancer metastasis” (INSERM (INSTITUT NATIONAL DE LA SANTE ET DE LA SANTE ET DE …, priority 2010, dated 2015).
Like-named read-outs stand apart in the source and are kept apart here.

Tests used:
SK3/KCa2.3 channel = SK3/KCa2.3 channel (Homo sapiens, UniProt Q9UGI6); test: Whole-cell patch clamp on HEK293 cells expressing SK3; assay type: cell-based; parameters: expressed in transfected cells; host or cells: HEK293, lentiviral transduction, clonal selection; conditions: for Conductance decreasing / Inhibition of I at 0 mV: HEK 293 LvSK3 cells; for Inhibition of I at 0 mV: 10 μM stated for JPH1701; for Effect on SK3 activity: less effect than JPH1701
Protocol: The percentages of inhibition represent the ratio (SK3 current amplitude and chord conductance (in the presence of 10 μM JPH1701)/SK3 current amplitude in control experiments). Black bars show current at 0 mV and grey bars indicate the chord conductance. […] Columns, mean, bars, SEM, (5 cells for racemic mix and 4 cells for + and − forms).
MDA-MB-435s and HEK293 cells were transduced with lentiviral vector at multiplicities of infection (MOI) of 1 to 3 in the presence of polybrene (4 μg/ml, Sigma).
Experiments were performed with cells seeded into 35-mm Petri dishes at 3000 cells per cm2. All experiments were performed using the conventional whole-cell recording configuration of the patch-clamp technique as previously described. PCa solution was 7 and 6.4 respectively for MDA-MB-435s and HEK293-SK3/KCa2.3 cells.
Briefly, experiments were conducted using Axopatch 200B patch-clamp amplifier (Axon Instrument) and data, digitized with 1322-A Digidata converter (Axon Instrument), were stored on a computer using Clampex of pClamp 9.2 software (Axon Instru-ment). The patch-clamp data was analyzed using both Clampfit 9.2 and Origin 7.0 software (Microcal Inc., Northampton, Mass., USA).
The pipette solution for the whole-cell recordings contained (in mM): K-glutamate 125, KCl 20, MgCl2 1, Mg-ATP 1, HEPES 10, and pH was adjusted to 7.2 with KOH and various concentrations of CaCl2 and EGTA were added to obtain calculated pCa=7 (0.37 mM CaCl2 and 10 mM EGTA) or pCa=6.4 (0.7 mM CaCl2 and 1 mM EGTA).
We next developed HEK cells expressing SK3/KCa2.3 channel in order to test directly analogues on SK3 activity measured using patch-clamp technique (FIG. 8). […] The JPH1701-induced inhibition of SK3 current was analysed at 0 mV and the entire time course of the experiment is depicted in FIG. 8A.
Current activity has been measured in HEK 293 LvSK3 and in MDA-MB-435s cells. The percentages represent the inhibition of current and of conductance by compounds on SK3 channel in HEK 293 cells.

[1] = Cytotoxicity / cell viability (MTT, tetrazolium salt reduction); conditions: human
MDA-MB-435s [2] = test: as above
PAF receptor [3] = target: T1, PAF receptor (Homo sapiens, UniProt P25105); test: 3H-C16-PAF binding, membrane homogenates of CHO cells; parameters: expressed in transfected cells; host or cells: CHO cells (membrane homogenates); conditions: 0.3 and 2 μM, FIG. 11A
Protocol: (§1) FIG. 11: Effects of JPH1701 on PAF receptor, PLC and PKCs activities. FIG. 11A) Histogram showing the percentage of control specific binding of 3H-C16-PAF to recombinant PAF receptor obtained from membrane homogenates of CHO cells by 0.3 and 2 μM edelfosine and by 0.3 and 2 μM JPH1701. FIG. 11B) Histogram showing the percentage of control agonist response (% effect i.e: increase of intracellular calcium concentration) of 0.3 and 2 μM edelfosine and JPH1701 on PAF receptor normalized to the response induced by 100 nM C16-PAF. […] FIG. 11C-D) Dose responses curves showing the effect of JPH1701 on PKCs (FIG. 11C, PKCs are: alpha, Beta 1, Beta 2, Gamma, Delta, Epsilon, Zeta, Eta, Theta, Iota) and PhosphoLipase C (PLC) activities (FIG. 11D).

PhosphoLipase C (PLC) = test: PhosphoLipase C activity; assay type: biochemical; conditions: FIG. 11D
Protocol: as §1

PAF receptor [4] = target: T1, PAF receptor; test: PAF receptor agonist response (increase of intracellular calcium); assay type: cell-based; conditions: 0.3 and 2 μM, FIG. 11B
Protocol: as §1

MDA-MB-435s (SK3+) = test: Cell migration / 2D motility assay (transwell inserts, wound healing); assay type: cell-based, human; conditions: for Effect on cell migration: summary of table 2
Source text: Alternatively, the cell migration inhibitory activity of a compound of formula (I) may be assessed by performing a Wound Healing assay that is disclosed in the examples herein and for which the one skilled in the art may also refer to the article of Rodriguez et al. (2005, Methods Biol Mol, Vol. 294: 23-29). The wound-healing assay is simple, inexpensive, and one of the earliest developed methods to study directional cell migration in vitro. This method mimics cell migration during wound healing in vivo. The basic steps involve creating a “wound” in a cell monolayer, capturing the images at the beginning and at regular intervals during cell migration to close the wound, and comparing the images to quantify the migration rate of the cells. It is particularly suitable for studies on the effects of cell-matrix and cell-cell interactions on cell migration. Cells are seeded in culture dishes and grown until confluence in DMEM supplemented with 10% foetal calf serum. The monolayer is then scratched with a sterile yellow pipette tip. Then, migration of cells to the cleared area is inspected under a microscope. Pictures are taken directly at the time of scratching and after 24 h, so as to determine the ability of the tested cells to migrate.
Wound healing assay: Cells were seeded in culture dishes and grown until confluence in DMEM supplemented with 10% foetal calf serum. The monolayer was scratched with a sterile yellow pipette tip. The migration of cells to the cleared area was inspected under a microscope. Pictures were taken directly at the time of scratching and after 24 h.
At least three independent experiments were each performed in triplicate.

MDA-MB-435s [5] = test system: MDA-MB-435s
[6] = Table 2, viability of MDA-MB-435s
[7] = Homo sapiens, MDA-MB-435S, Table 2, concentration 300 nM

T1 sequence (P25105 whole entry): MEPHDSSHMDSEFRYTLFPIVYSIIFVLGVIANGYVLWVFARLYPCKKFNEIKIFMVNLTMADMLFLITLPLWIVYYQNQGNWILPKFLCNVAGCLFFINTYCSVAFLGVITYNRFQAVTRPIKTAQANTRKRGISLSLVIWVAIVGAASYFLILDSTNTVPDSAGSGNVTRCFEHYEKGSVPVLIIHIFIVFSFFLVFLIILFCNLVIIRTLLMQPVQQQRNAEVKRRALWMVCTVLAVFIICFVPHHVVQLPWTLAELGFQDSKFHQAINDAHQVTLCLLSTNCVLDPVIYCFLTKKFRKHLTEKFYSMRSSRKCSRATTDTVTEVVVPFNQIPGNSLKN

With `CCCCCCCCCCCCCCCCOCC(COP(=O)(O)OC1OC(COC(C)=O)C(OC2OC(COC(C)=O)C(OC(C)=O)C(OC(C)=O)C2OC(C)=O)C(OC(C)=O)C1OC(C)=O)OC.CCN(CC)CC` (mixture of isomers) [CHS31] the Conductance decreasing (SK3/KCa2.3 channel) was 38.9 ± 5.5%, the “Inhibition of I at 0 mV” value (SK3/KCa2.3 channel) was 42.5 ± 8.2% and the “Effect on SK3 activity” value (SK3/KCa2.3 channel) was “reduced SK3 activity”.

For `CCCCCCCCCCCCCCCCCCOCC(COP(=O)([O-])OCC[N+](C)(C)C)OC` (centres unmarked) [Edelfosine, reference compound], the IC50 at 24 h ([1]; MDA-MB-435s cells (metastatic cancer cell line)) was under 5 µM, the IC50 (MDA-MB-435s [2]; Homo sapiens, MDA-MB-435S) was about 5 µM and the Toxicity (MDA-MB-435s [2]; [6]) was “Yes at 10 μM”. For the same compound, the “Interaction with C16-PAF binding site of PAF receptor” value (PAF receptor [3]) was “able to interact”, the IC50 (PhosphoLipase C (PLC)) was 2.5 µM and the “PAF receptor agonist response” value (PAF receptor [4]) was “dose-dependently increase intracellular calcium”. It also gave an inhibition at 0.01 µM (MDA-MB-435s (SK3+); Homo sapiens, MDA-MB-435S, Table 2, concentration 10 nM) of 60% and an inhibition at 0.3 µM (MDA-MB-435s (SK3+); [7]) of 80%.

For `CCCCCCCCCCCCCCCCOCC(O)CO` (centres unmarked) [GS 1361], the Toxicity (MDA-MB-435s [5]) was “No at 10 μM” and the “Migration (% of inhibition)” value (MDA-MB-435s (SK3+); Table 2, concentration 300 nM) was 40%.

For `CCCCCOCC(O)CO[C@@H]1O[C@H](COC(C)=O)[C@@H](OC(C)=O)[C@H](OC(C)=O)[C@H]1OC(C)=O` (some centres unmarked) [HCG450], the IC50 (MDA-MB-435s [2]; [6]) was about 30 µM and the Toxicity (MDA-MB-435s [5]) was “Yes at 10 μM”.

With `CCCCCOCC(O)CO[C@@H]1O[C@H](CO)[C@@H](O)[C@H](O)[C@H]1O` (some centres unmarked) [HCG451] the Toxicity (MDA-MB-435s [5]) was “No until 100 μM”, the “Migration (% of inhibition)” value (MDA-MB-435s (SK3+); Table 2, concentration 300 nM) was “No effect” and the “Effect on cell migration” value (MDA-MB-435s (SK3+)) was “ineffective in cell migration”.

With `CCCCCCCCCCCCCCCCOC[C@H](CO[C@@H]1O[C@H](COC(C)=O)[C@@H](O[C@@H]2O[C@H](COC(C)=O)[C@H](OC(C)=O)[C@H](OC(C)=O)[C@H]2OC(C)=O)[C@H](OC(C)=O)[C@H]1OC(C)=O)OC` [JPH1700] the Conductance decreasing (SK3/KCa2.3 channel) was 18.1 ± 2.3%, the “Inhibition of I at 0 mV” value (SK3/KCa2.3 channel) was 22.8 ± 2.1% and the “Effect on SK3 activity” value (SK3/KCa2.3 channel) was “reduced SK3 activity”.

For `CCCCCCCCCCCCCCCCOC[C@H](CO[C@@H]1O[C@H](CO[C@H]2O[C@H](COC(C)=O)[C@H](OC(C)=O)[C@H](OC(C)=O)[C@H]2OC(C)=O)[C@@H](OC(C)=O)[C@H](OC(C)=O)[C@H]1OC(C)=O)OC` [JPH1874], the Conductance decreasing (SK3/KCa2.3 channel) was 34.1 ± 6.8% and the “Inhibition of I at 0 mV” value (SK3/KCa2.3 channel) was 44.0 ± 5.5%.

For `CCCCCCCCCCCCCCCCOC[C@H](CO[C@@H]1O[C@H](COC(C)=O)[C@@H](O[C@H]2O[C@H](COC(C)=O)[C@@H](OC(C)=O)[C@H](OC(C)=O)[C@H]2OC(C)=O)[C@H](OC(C)=O)[C@H]1OC(C)=O)OC` [JPH1880], the Conductance decreasing (SK3/KCa2.3 channel) was 46.1 ± 6.1% and the “Inhibition of I at 0 mV” value (SK3/KCa2.3 channel) was 44.7 ± 5.0%.

Work on `CCCCCCCCCCCCCCCCOCC(COP(=O)(O)OCC[N+](C)(C)C)OC` (centres unmarked) [JPH 1321] yielded an IC50 at 24 h ([1]; MDA-MB-435s cells) of about 30 µM and an inhibition at 0.1 µM (MDA-MB-435s (SK3+); Homo sapiens, MDA-MB-435S, Table 1, concentration 100 nM, read-out: Cell Migration inhibition of MDA-MB-435s (SK3+), Inhibitory effect) of 50%.

For `CCCCCCCCCCCCCCCCOCC(CO[C@@H]1O[C@H](COC(C)=O)[C@H](OC(C)=O)[C@H](OC(C)=O)[C@H]1OC(C)=O)OC` (some centres unmarked) [JPH 1519], the “Migration (% of inhibition)” value (MDA-MB-435s (SK3+); Table 2, concentration 100 nM) was 20%.

In the case of `CCCCCCCCCCCCCCCCOCC(CO[C@@H]1O[C@H](CO)[C@H](O)[C@H](O)[C@H]1O)OC` (some centres unmarked) [JPH 1524], the IC50 (MDA-MB-435s [2]; [6]) is reported as about 10 µM, the Toxicity (MDA-MB-435s [5]) is reported as “Yes at 10 μM” and the “Migration (% of inhibition)” value (MDA-MB-435s (SK3+); Table 2, concentration 300 nM) is reported as 20%.

With `CCCCCCCCCCCCCCCCOCC(CO)OC` (centres unmarked) [JPH 1597] the IC50 (MDA-MB-435s [2]; [6]) was about 50 µM, the Toxicity (MDA-MB-435s [5]) was “No at 10 μM” and the “Migration (% of inhibition)” value (MDA-MB-435s (SK3+); Table 2, concentration 300 nM) was “No effect”. For the same compound, the “Effect on cell migration” value (MDA-MB-435s (SK3+)) was “decrease its inhibitory effect on cell migration”.

For `CCCCCCCCCCCCCCCCCCOCC(CO[C@@H]1O[C@H](CO)[C@@H](O[C@@H]2O[C@H](CO)[C@H](O)[C@H](O)[C@H]2O)[C@H](O)[C@H]1O)OC` (some centres unmarked) [JPH 1731], the “Migration (% of inhibition)” value (MDA-MB-435s (SK3+); Table 2, concentration 100 nM) was 30%.

With `CCCCCCCCCCCCCCCCOP(=O)([O-])OCC[N+](C)(C)C` [Miltefosine, reference compound] the IC50 (MDA-MB-435s [2]; Homo sapiens, MDA-MB-435S) was about 10 µM, the inhibition at 0.3 µM (MDA-MB-435s (SK3+); [7]) was 20% and the “Effect on cell migration” value (MDA-MB-435s (SK3+)) was “ineffective on cell migration”.

For `CCCCCCCCCCCCCCCCOCC(COP(=O)([O-])OCC[N+](C)(C)C)OC(C)=O` (centres unmarked) [PAF, reference compound], the Toxicity (MDA-MB-435s [2]; [6]) was “No until 100 μM”, the “Migration (% of inhibition)” value (MDA-MB-435s (SK3+); Table 2, concentration 300 nM) was “No effect” and the “Effect on cell migration” value (MDA-MB-435s (SK3+)) was “no effect on cell migration”.

For `CCCCCCCCCCCCCCCCCCOP(=O)([O-])OCC[N+](C)(C)C` [SK55], the IC50 (MDA-MB-435s [2]; [6]) was about 20 µM and the “Effect on cell migration” value (MDA-MB-435s (SK3+)) was “ineffective on cell migration”.
